Laboratory results from publication PMC12216609, “Inhibitors of eIF1A-ribosome interaction unveil uORF-dependent regulation of translation initiation and antitumor and antiviral effects” (The EMBO Journal, 2025).
Values joined by “and” are separate entries in the source; they are usually repeats but may differ in a detail not shown here. Identical values can stand only once. Like-named read-outs stand apart in the source and are kept apart here.

Key:
[1] = tested on: IRF7 5'UTR firefly luciferase reporter in HEK293T cells; settings: for Reference vs IRF7 (Final data, Fig. 1E): 1/Result, relative to DMSO; for LONG (summary - All), normalized to DMSO / SHORT (summary - All), normalized to DMSO: individual replicates, outliers excluded, DMSO = 1; for SHORT (summary - All), normalized to DMSO: Short reporter; for Long 5'UTR reporter luciferase activity, normalized to DMSO (=1), single replicates: left data block (Long), source data of Fig 1C; for average ( long vs short ratio): summary - All;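 on all read-outs here: luciferase signal corrected by a co-transfected GFP reporter for transfection efficiency, read after overnight compound exposure, with Long and Short reporters differing in 5'UTR length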
[2] = tested on: cap-proximal AUG GFP reporter in HEK293T cells; type: cell-based; settings: GFP WB densitometry; 20 µM overnight; dmso 0.965946;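 further: ratio of upstream to downstream AUG initiation products on GFP Western blot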
RPS10 = biological target: T1, RPS10 (Homo sapiens, UniProt P46783); type: binding; settings: for RPS10 IC50: fluorescence binding
T1 construct: made in house; host or cells: E. coli BL-21

[3] = tested on: CUG/GUG vs AUG start codon luciferase reporters in HEK293T cells; test: Near-cognate AUG starting codon fidelity reporter assay (GUG, CUG vs AUG); type: cell-based; settings: for CUG vs AUG (%): CUG start codon reporter relative to AUG reporter (AUG = 100); for CUG vs AUG (%) / GUG vs AUG (%): single-experiment calculation; for GUG vs AUG (%): GUG start codon reporter relative to AUG reporter (AUG = 100); for average CUG and GUG / average CUG and GUG relative to DMSO / CUG Average / GUG Average: NUG experiment; for CUG Average: CUG vs AUG reporter; for GUG Average: GUG vs AUG reporter; for NUG (Final data, Fig. 1E): average CUG and GUG relative to DMSO, 20 µM overnight; for GUG vs AUG data (%): individual repeat; for GUG vs AUG (%) Average: summary average of repeats, DMSO control average […]
[4] = summary table, fluorescence binding assay
[5] = compound at 10uM (summary head)
[6] = compound at 20uM (summary head)

Structure (SMILES) | Reference vs IRF7 (Final data, Fig. 1E) ([1]; 20 µM) | US/DS ratio, average [2] | RPS10 fluorescence ratio to control (RPS10; 1Ai conc. 0.25 uM) | RPS10 fluorescence ratio to control (RPS10; 1Ai conc. 0.5 uM) | RPS10 fluorescence ratio to control (RPS10; 1Ai conc. 2 uM) | RPS10 fluorescence ratio to control (RPS10; 1Ai conc. 4 uM) | RPS10 fluorescence ratio to control (RPS10; 1Ai conc. 8 uM) | RPS10 fluorescence ratio to control (RPS10; 1Ai conc. 16 uM) | RPS10 fluorescence ratio to control (RPS10; 1Ai conc. 32 uM) | RPS10 fluorescence ratio to control (RPS10; 1Ai conc. 64 uM) | RPS10 fluorescence ratio to control (RPS10; 1Ai conc. 256 uM) | RPS10 IC50 (RPS10) | IC50 concentration (µM), RPS10 (RPS10; [4]) | average CUG and GUG [3] | average CUG and GUG relative to DMSO [3] | CUG Average [3] | GUG Average [3] | NUG (Final data, Fig. 1E) [3] | RPS10 fluorescence ratio to control (RPS10; 1Ai conc. 1 uM) | LONG (summary - All), normalized to DMSO ([1]; Long reporter, 20 µM) | further results
COc1ccc2oc(C(=O)OC(C)C(=O)Nc3sccc3C(N)=O)c(C)c2c1 (centres unmarked) [1Ai-3044] | 0.527 | 0.9145 | 1 | 1.015 | 1.108 | 1.108 | 1.07 | 0.983 | 0.9928 | 1.135 | 1.327 | No binding | No binding | 5.9112 | 1.3106 | 9.682 | 2.141 | 1.311 |  |  | LONG (summary - All), normalized to DMSO ([1]; Long reporter, 10 µM): 0.55 and 1.64 and 1.20 and 0.82 and 1.11; SHORT (summary - All), normalized to DMSO ([1]; 10 µM): 0.72 and 0.67 and 0.70 and 0.63; Long 5'UTR reporter luciferase activity, normalized to DMSO (=1), single replicates ([1]; compound at 10 µM): 0.5511 and 1.639 and 1.204 and 0.8163 and 1.106; average ( long vs short ratio) ([1]; 10 µM): 1.568; CUG vs AUG (%) [3, 5]: 8.177%; GUG vs AUG (%) [3, 5]: 1.952%; GUG vs AUG data (%) ([3]; compound at 10uM): 2.24% and 1.90% and 2.01% and 2.41%; GUG vs AUG (%) Average ([3]; compound at 10uM): 2.14%
Oc1cc(Cl)ccc1Oc1ccc(Cl)cc1Cl [1Ai-6248] | 2.307 | 1.042 | 1.015 | 0.9639 | 0.9545 | 0.9327 | 0.7864 | 0.7439 | 0.7362 | 0.7781 | 1.057 | No binding | No binding | 4.51 | 1 | 7.441 | 1.579 | 1.000 | 0.9786 |  | LONG (summary - All), normalized to DMSO ([1]; Long reporter, 5 µM): 0.82 and 0.51 and 0.33 and 0.43; SHORT (summary - All), normalized to DMSO ([1]; 5 µM): 0.71 and 0.90 and 0.20; average ( long vs short ratio) ([1]; 5 µM): 0.861; CUG vs AUG (%) ([3]; compound at 5uM (summary head)): 9.031% and 6.716%; GUG vs AUG (%) ([3]; compound at 5uM (summary head)): 1.808% and 1.909%; GUG vs AUG data (%) ([3]; compound at 5uM): 1.28% and 2.36% and 1.32% and 1.37%; GUG vs AUG (%) Average ([3]; compound at 5uM): 1.58%
O=C(C=Cc1ccc(Cl)s1)Nc1cccc2ncccc12 [1Ai-4860] | 1.848 | 1.03 | 0.9517 | 0.9517 | 0.9408 | 0.8788 | 0.814 | 0.7263 | 0.7395 | 0.7335 | 0.5649 | No binding | No binding | 2.314 | 0.5131 | 3.6331 | 0.9953 | 0.513 | 0.8947 | 0.47 and 0.69 and 0.42 and 0.61 | SHORT (summary - All), normalized to DMSO ([1]; 20 µM): 0.84 and 1.62 and 0.77; Long: Normalized to average DMSO ([1]; data section, Long reporter, GFP-corrected, 20 µM, per experiment, includes values excluded as outliers): 0.471 and 0.6925 and 0.4245 and 0.6135; average ( long vs short ratio) ([1]; 20 µM): 0.541; CUG vs AUG (%) [3, 6]: 3.6331%; GUG vs AUG (%) [3, 6]: 0.9953%; GUG vs AUG data (%) ([3]; compound at 20uM): 1.48% and 1.00%; GUG vs AUG (%) Average ([3]; compound at 20uM): 1.24%
C=CCNC(=O)CN1CCN(Cc2nc3cc(-c4ccc(Cl)cc4)sc3c(=O)[nH]2)CC1 [1Ai-1524] | 1.878 | 0.7201 | 1.173 | 1.067 | 0.8336 | 0.607 | 0.7612 | 0.4083 | 0.3654 | 0.4197 | 0.05131 |  |  | 7.9532 | 1.763 | 12.0643 | 3.842 | 1.763 | 0.76 | 0.62 and 0.21 and 0.43 and 0.52 | SHORT (summary - All), normalized to DMSO ([1]; 20 µM): 0.50 and 0.66 and 0.41; average ( long vs short ratio) ([1]; 20 µM): 0.848; IC50 (RPS10; read-out: IC50 (line under RPS10 binding data)): 16.8 µM; IC50 (RPS10; read-out: RPS10 IC50): 16.8 µM; IC50 (RPS10; summary table, fluorescence binding assay, read-out: IC50 concentration (µM), RPS10): 16.8 µM; CUG vs AUG (%) [3, 6]: 6.424%; GUG vs AUG (%) [3, 6]: 0.742%; GUG vs AUG data (%) ([3]; compound at 20uM): 4.35% and 2.64% and 2.99% and 5.39%; GUG vs AUG (%) Average ([3]; compound at 20uM): 3.84%
CN1CCN(S(=O)(=O)c2ccc(N3Cc4cc5c(cc4C4(CCCC4)C3)OCCO5)nc2)CC1 [1Ai-3564] | 1.762 | 0.4649 | 1 | 0.8515 | 0.9853 | 0.8932 | 0.9434 | 0.942 | 1 | 1.142 | 1.206 | No binding | No binding | 6.96 | 1.543 | 10.8773 | 3.042 | 1.543 | 0.9657 | 0.26 and 0.60 and 0.49 and 0.43 and 0.25 | SHORT (summary - All), normalized to DMSO ([1]; 20 µM): 0.54 and 0.80 and 0.85 and 0.72 and 0.67; Long 5'UTR reporter luciferase activity, normalized to DMSO (=1), single replicates ([1]; compound at 20 µM): 0.261 and 0.6001 and 0.4877 and 0.4313 and 0.2492; average ( long vs short ratio) ([1]; 20 µM): 0.568; GUG vs AUG data (%) ([3]; compound at 20uM): 2.43% and 3.12% and 4.52% and 2.10%; GUG vs AUG (%) Average ([3]; compound at 20uM): 3.04%
CN(C)CC1CCn2cc(c3ccccc32)C2=C(C(=O)NC2=O)c2cn(c3ccccc23)CCO1 (centres unmarked) [1Ai-5662] | 0.936 | 3.065 | 0.8917 | 1.048 | 0.8646 | 0.7525 | 0.6979 | 0.6531 | 0.6137 | 0.4569 | 0.295 | No binding | No binding | 5.24 | 1.162 | 7.645 | 2.835 | 1.162 | 0.937 |  | LONG (summary - All), normalized to DMSO ([1]; Long reporter, 10 µM): 1.11 and 0.84 and 0.46 and 0.50; SHORT (summary - All), normalized to DMSO ([1]; 10 µM): 0.67 and 0.80 and 0.62 and 0.63; average ( long vs short ratio) ([1]; 10 µM): 1.068; GUG vs AUG data (%) ([3]; compound at 10uM): 1.99% and 4.83% and 1.69%; GUG vs AUG (%) Average ([3]; compound at 10uM): 2.83%
